According to patent US9884832B2 (priority 2011, dated 2018):

What follows are compounds tested against AM2 S31 (wild-type serine at position 31 in the M2 protein), influenza virus A/Udorn/72 (Influenza A virus, UniProt P0DOF5) (assay: cell-based). Conditions: 100 uM; Xenopus oocytes; activity range class; read-out: S31 OOcyte Inhibition at 100 uM (%).
Sequence of AM2 S31 (wild-type serine at position 31 in the M2 protein), influenza virus A/Udorn/72 (P0DOF5 whole entry, looked up): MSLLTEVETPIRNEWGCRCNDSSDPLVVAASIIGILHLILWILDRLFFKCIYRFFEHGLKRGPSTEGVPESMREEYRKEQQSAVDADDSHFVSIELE
For `c1cc2cn[nH]c2cc1CNC12CC3CC(CC(C3)C1)C2` [Example 43a, N-((1H-indazol-6-yl)methyl)adamantan-1-amine], the inhibition at 100 µM was 31 to 95%. Compound `CC(C)n1cc(CNC23CC4CC(CC(C4)C2)C3)cn1` [Example 85a, N-((1-isopropyl-1H-pyrazol-4-yl)methyl)adamantan-1-amine] has an inhibition at 100 µM of 0 to 30%. Work on `FC(F)(F)c1ccc(CNC23CC4CC(CC(C4)C2)C3)cc1` [Example 5a, Adamantan-1-yl-(4-trifluoromethyl-benzyl)-amine] yielded an inhibition at 100 µM of 0 to 30%. Compound `Brc1ccc(CNC23CC4CC(CC(C4)C2)C3)[nH]1` [Example 88a, Adamantan-1-yl-(5-bromo-1H-pyrrol-2-ylmethyl)-amine] has an inhibition at 100 µM of 31 to 95%. `FC(F)(F)c1ccc(-c2nc(CNC34CC5CC(CC(C5)C3)C4)no2)cc1` [Example 129a, N-((5-(4-(trifluoromethyl)phenyl)-1,2,4-oxadiazol-3-yl)methyl)adamantan-1-amine] showed an inhibition at 100 µM of 0 to 30%. `c1csc(-c2nnc(CNC34CC5CC(CC(C5)C3)C4)s2)c1` [Example 151a, N-((5-(thiophen-2-yl)-1,3,4-thiadiazol-2-yl)methyl)adamantan-1-amine] gave an inhibition at 100 µM of 0 to 30%. `c1ccc2cc(COc3ccc(CNC45CC6CC(CC(C6)C4)C5)cc3)ccc2c1` [Example 38a, N-(4-(naphthalen-2-ylmethoxy)benzyl)adamantan-1-amine] gave an inhibition at 100 µM of 0 to 30%. `O=c1ccc2cc(CNC34CC5CC(CC(C5)C3)C4)ccc2o1` [Example 42a, 6-((adamantan-1-ylamino)methyl)-2H-chromen-2-one] was tested, and the inhibition at 100 µM was 0 to 30%. Compound `c1csc(-c2ccc(CNC34CC5CC(CC(C5)C3)C4)o2)c1` [Example 138a, Adamantan-1-yl-(5-thiophen-2-yl-furan-2-ylmethyl)-amine] has an inhibition at 100 µM of 0 to 30%. `c1ccc(-c2ncc(CNC34CC5CC(CC(C5)C3)C4)cn2)cc1` [Example 63a, N-((2-phenylpyrimidin-5-yl)methyl)adamantan-1-amine] was tested, and the inhibition at 100 µM was 0 to 30%. `Cc1ccc(-c2ccc(CNC34CC5CC(CC(C5)C3)C4)cc2)o1.Cl` [Example 32a, N-(4-(5-Methylfuran-2-yl)benzyl)adamantan-1-amine hydrochloride] gave an inhibition at 100 µM of 0 to 30%. For `c1csc(-c2cc(CNC34CC5CC(CC(C5)C3)C4)on2)c1` [Example 149a, N-((3-(thiophen-2-yl)isoxazol-5-yl)methyl)adamantan-1-amine], the inhibition at 100 µM was 0 to 30%. With `Cc1c(CNC23CC4CC(CC(C4)C2)C3)sc2ccccc12` [Example 177a, Adamantan-1-yl-(3-methyl-benzo[b]thiophen-2-ylmethyl)-amine] the inhibition at 100 µM was 31 to 95%. `Cc1nc(CNC23CC4CC(CC(C4)C2)C3)c[nH]1` [Example 99a, N-((2-methyl-1H-imidazol-4-yl)methyl)adamantan-1-amine] showed an inhibition at 100 µM of 0 to 30%. For `c1cc(CNC23CC4CC(CC(C4)C2)C3)cs1` [Example 68a, Adamantan-1-yl-thiophen-3-ylmethyl-amine], the inhibition at 100 µM was 31 to 95%. For `Ic1ccc(CNC23CC4CC(CC(C4)C2)C3)s1` [Example 91a, N-((5-Iodothiophen-2-yl)methyl)adamantan-1-amine], the inhibition at 100 µM was 31 to 95%. Work on `CC(NC12CC3CC(CC(C3)C1)C2)c1ccc(I)s1` (centres unmarked) [Example 82a, N-(1-(5-iodothiophen-2-yl)ethyl)adamantan-1-amine] yielded an inhibition at 100 µM of 31 to 95%. With `Brc1cc(CNC23CC4CC(CC(C4)C2)C3)on1` [Example 94a, N-((3-bromoisoxazol-5-yl)methyl)adamantan-1-amine] the inhibition at 100 µM was 0 to 30%. Compound `Brc1nc(CNC23CC4CC(CC(C4)C2)C3)cs1` [Example 83a, N-((2-bromothiazol-4-yl)methyl)adamantan-1-amine] has an inhibition at 100 µM of 31 to 95%. For `FC(F)(F)c1cccc(-c2nc(CNC34CC5CC(CC(C5)C3)C4)no2)c1` [Example 125a, N-((5-(3-(trifluoromethyl)phenyl)-1,2,4-oxadiazol-3-yl)methyl)adamantan-1-amine], the inhibition at 100 µM was 0 to 30%. In the case of `CC(NC12CC3CC(CC(C3)C1)C2)c1ccc(C#N)s1` (centres unmarked) [Example 92a, 5-(1-(adamantan-1-ylamino)ethyl)thiophene-2-carbonitrile], the inhibition at 100 µM is reported as 31 to 95%. `COc1cccc(COc2ccc(CNC34CC5CC(CC(C5)C3)C4)cc2)c1` [Example 14a, Adamantan-1-yl-[4-(3-methoxy-benzyloxy)-benzyl]-amine] showed an inhibition at 100 µM of 0 to 30%.

Same assay, conditions: Table 1; 100 uM; Xenopus oocytes, pH 5.5, -20 mV; read-out: S31 OOcyte Inhibition at 100 uM (%)
`c1cc(CNC23CC4CC(CC(C4)C2)C3)ccn1` [Example 73, Adamantan-1-yl-pyridin-4-ylmethyl-amine] showed an inhibition at 100 µM of 31 to 95%. `COc1ccc(CNC23CC4CC(CC(C4)C2)C3)cc1` [Example 16, Adamantan-1-yl-(4-methoxy-benzyl)-amine] showed an inhibition at 100 µM of 31 to 95%. `O=C(Oc1ccc(CNC23CC4CC(CC(C4)C2)C3)cc1)c1cccs1` [Example 37, Thiophene-2-carboxylic acid 4-(adamantan-1-ylaminomethyl)-phenyl ester] gave an inhibition at 100 µM of 0 to 30%. `Oc1ccc(CN2CC3CC4CC(C3)CC2C4)c(O)c1` [Example 116, 4-(4-Aza-tricyclo[4.3.1.13,8]undec-4-ylmethyl)-benzene-1,3-diol] gave an inhibition at 100 µM of 31 to 95%. Work on `c1cc(-c2ccc(CNC34CC5CC(CC(C5)C3)C4)cc2)co1` [Example 42, N-(4-(Furan-3-yl)benzyl)adamantan-1-amine] yielded an inhibition at 100 µM of 0 to 30%. Compound `CSc1ccc(CNC23CC4CC(CC(C4)C2)C3)c(SC)c1` [Example 55, Adamantan-1-yl-(2,4-bis-methylsulfanyl-benzyl)-amine] has an inhibition at 100 µM of 0 to 30%. In the case of `Oc1ccc(/C=N/C23CC4CC(CC(C4)C2)C3)cc1` [Example 6], the inhibition at 100 µM is reported as 31 to 95%. For `CC(C)(C)C1CCC(NCc2ccc(O)cc2O)CC1` (centres unmarked) [Example 109, 4-[(4-tert-Butyl-cyclohexylamino)-methyl]-benzene-1,3-diol], the inhibition at 100 µM was 31 to 95%. Compound `O=[N+]([O-])c1ccc(CNC23CC4CC(CC(C4)C2)C3)cc1` [Example 19, Adamantan-1-yl-(4-nitro-benzyl)-amine] has an inhibition at 100 µM of 31 to 95%. `c1ncc(CCNCC23CC4CC(CC(C4)C2)C3)[nH]1` [Example 1, Adamantan-1-ylmethyl-[2-(3H-imidazol-4-yl)-ethyl]-amine] gave an inhibition at 100 µM of 0 to 30%.

Same assay, conditions: Table 3; 100 uM; Xenopus oocytes, pH 5.5, -20 mV; read-out: S31 OOcyte Inhibition at 100 uM (%)
With `Nc1ncc(CNC23CC4CC(CC(C4)C2)C3)s1` [Example 19b] the inhibition at 100 µM was 0 to 30%. `COc1ccccc1-c1noc(CNC23CC4CC(CC(C4)C2)C3)n1` [Example 30b, N-((3-(2-methoxyphenyl)-1,2,4-oxadiazol-5-yl)methyl)adamantan-1-amine] was tested, and the inhibition at 100 µM was 0 to 30%. `FC(F)(F)c1nnc(CNC23CC4CC(CC(C4)C2)C3)o1` [Example 14b, N-((5-(trifluoromethyl)-1,3,4-oxadiazol-2-yl)methyl)adamantan-1-amine] gave an inhibition at 100 µM of 0 to 30%. Compound `CCSc1ncc(CNC23CC4CC(CC(C4)C2)C3)cn1` [Example 56b, N-((2-(ethylthio)pyrimidin-5-yl)methyl)adamantan-1-amine] has an inhibition at 100 µM of 0 to 30%. `C1COC(c2nc(CNC34CC5CC(CC(C5)C3)C4)no2)C1` (centres unmarked) [Example 21b, N-((5-(tetrahydrofuran-2-yl)-1,2,4-oxadiazol-3-yl)methyl)adamantan-1-amine] was tested, and the inhibition at 100 µM was 0 to 30%. In the case of `Cc1csc(-c2ccc(CNC34CC5CC(CC(C5)C3)C4)s2)c1` [Example 51b, N-((4′-Methyl-[2,2′-bithiophen]-5-yl)methyl)adamantan-1-amine], the inhibition at 100 µM is reported as 0 to 30%.
